This test in a line: Antiplatelet activity in citrated human platelet rich plasma assessed as inhibition of ADP-induced platelet aggregation incubated for 10 mins at 37 degC by light transmission aggregometry. Format: functional.

Residues, ends and D or L forms follow the SMILES beside them. *: point of attachment. X3 = OC[C@H]1O[C@H](OCCn2cc(C*)nn2)[C@@H](O)[C@@H](O)[C@@H]1O; X4 = OC[C@H]1O[C@@H](OCCn2cc(C*)nn2)[C@H](O)[C@@H](O)[C@@H]1O; X6 = O[C@@H]1[C@@H](O)[C@@H](OCCn2cc(C*)nn2)O[C@H](CF)[C@H]1O; X1 = OC[C@H]1O[C@@H](OCCn2cc(C*)nn2)[C@H](O)[C@@H](O)[C@H]1O; X2 = O[C@@H]1[C@@H](O)[C@H](OCCn2cc(C*)nn2)O[C@H](CF)[C@H]1O; X5 = O[C@@H]1[C@H](O)[C@@H](OCCn2cc(C*)nn2)O[C@H](CF)[C@H]1O

In general, IC50 refers to the concentration that inhibits the measured activity by half. For the molecule `N=C(N)NCCC[C@H](N)C(=O)NCC(=O)N[C@@H](CC(=O)O)C(=O)N[C@@H](CSCc1cn(CCO[C@@H]2O[C@H](CO)[C@H](O)[C@H](O)[C@H]2O)nn1)C(=O)O` (H-RGDC(X1)-OH), the IC50 was 23 µM.

Turning to `N=C(N)NCCC[C@H](N)C(=O)NCC(=O)N[C@@H](CC(=O)O)C(=O)N[C@@H](CSCc1cn(CCO[C@H]2O[C@H](CF)[C@@H](O)[C@H](O)[C@@H]2O)nn1)C(=O)O` (H-RGDC(X5)-OH), the IC50 is 23.5 µM.

`N=C(N)NCCC[C@H](N)C(=O)NCC(=O)N[C@@H](CC(=O)O)C(=O)N[C@@H](CSCc1cn(CCO[C@@H]2O[C@H](CF)[C@@H](O)[C@H](O)[C@H]2O)nn1)C(=O)O` (H-RGDC(X2)-OH): the IC50 was 66 µM.

As to `NC(N)=NCCC[C@H](N)C(=O)NCC(=O)N[C@@H](CC(=O)O)C(=O)N[C@@H](CS)C(=O)O` (H-RGDC-OH), the IC50 stood at 322 µM.

Take `N=C(N)NCCC[C@H](N)C(=O)NCC(=O)N[C@@H](CC(=O)O)C(=O)N[C@@H](CSCc1cn(CCO[C@H]2O[C@H](CO)[C@@H](O)[C@H](O)[C@@H]2O)nn1)C(=O)O` (H-RGDC(X3)-OH): the half-maximal inhibitory concentration (IC50) stood at 47.6 µM.

Take `NC(N)=NCCC[C@H](N)C(=O)NCC(=O)N[C@@H](CC(=O)O)C(=O)O`: the IC50 was found to be 319 µM.

With `CC(C)[C@@H]1NC(=O)[C@H](Cc2ccccc2)NC(=O)[C@H](CC(=O)O)NC(=O)CNC(=O)[C@H](CCCNC(=N)N)NC1=O`, the IC50 was determined as 72 µM.

For `N=C(N)NCCC[C@@H]1NC(=O)[C@H](CSCc2cn(CCO[C@@H]3O[C@H](CF)[C@@H](O)[C@H](O)[C@H]3O)nn2)NC(=O)[C@H](Cc2ccccc2)NC(=O)[C@H](CC(=O)O)NC(=O)CNC1=O`, the IC50 worked out at 148 µM.

For the molecule `N=C(N)NCCC[C@H](N)C(=O)NCC(=O)N[C@@H](CC(=O)O)C(=O)N[C@@H](CSCc1cn(C[C@H]2O[C@H](O[C@H]3O[C@H](Cn4cc(CSC[C@H](NC(=O)[C@H](CC(=O)O)NC(=O)CNC(=O)[C@@H](N)CCCNC(=N)N)C(=O)O)nn4)[C@@H](O)[C@H](O)[C@H]3O)[C@@H](O)[C@@H](O)[C@@H]2O)nn1)C(=O)O`, the IC50 stood at 76.5 µM.

Take `N=C(N)NCCC[C@H](N)C(=O)NCC(=O)N[C@@H](CC(=O)O)C(=O)N[C@@H](CSCc1cn(CCO[C@@H]2O[C@H](CO)[C@@H](O)[C@H](O)[C@H]2O)nn1)C(=O)O` (H-RGDC(X4)-OH): the IC50 was 44 µM.

With `N=C(N)NCCC[C@H](N)C(=O)NCC(=O)N[C@@H](CC(=O)O)C(=O)N[C@@H](CSCc1cn(CCO[C@H]2O[C@H](CF)[C@@H](O)[C@H](O)[C@H]2O)nn1)C(=O)O` (H-RGDC(X6)-OH), the IC50 was determined as 26 µM.

`N=C(N)NCCC[C@@H]1NC(=O)[C@H](CS)NC(=O)[C@H](Cc2ccccc2)NC(=O)[C@H](CC(=O)O)NC(=O)CNC1=O` (cyclo(RGDFC)): the IC50 was 65 µM.
